This is an account of results in US8785377B2, “Tetrazolyl macrocyclic hepatitis C serine protease inhibitors” (Enanta Pharmaceuticals, Inc., priority 2006, dated 2014).

pEC50, pIC50: −log10 of the molar value.

A short description of series [1]: Pharmacokinetic analysis, single oral dose in rat. Conditions: in vivo, single oral dose of 20 mg/kg.
Series [2] has as its system HCV replicon RNA in Huh 11-7 cell line. In words: Cell-Based Replicon Assay. To be noted: Hepatitis C virus, 96 h; Huh 11-7 cells, 4 days. On the procedure:
Quantification of HCV replicon RNA (HCV Cell Based Assay) is accomplished using the Huh 11-7 cell line (Lohmann, et al Science 285:110-113, 1999). Cells are seeded at 4×10^3 cells/well in 96 well plates and fed media containing DMEM (high glucose), 10% fetal calf serum, penicillin-streptomycin and non-essential amino acids. Cells are incubated in a 7.5% CO2 incubator at 37° C. At the end of the incubation period, total RNA is extracted and purified from cells using Ambion RNAqueous 96 Kit (Catalog No. AM1812). To amplify the HCV RNA so that sufficient material can be detected by an HCV specific probe (below), primers specific for HCV (below) mediate both the reverse transcription of the HCV RNA and the amplification of the cDNA by polymerase chain reaction (PCR) using the TaqMan One-Step RT-PCR Master Mix Kit (Applied Biosystems catalog no. 4309169). The nucleotide sequences of the RT-PCR primers, which are located in the NS5B region of the HCV genome, are the following:
Detection of the RT-PCR product is accomplished using the Applied Biosystems (ABI) Prism 7500 Sequence Detection System (SDS) that detects the fluorescence that is emitted when the probe, which is labeled with a fluorescence reporter dye and a quencher dye, is degraded during the PCR reaction. The increase in the amount of fluorescence is measured during each cycle of PCR and reflects the increasing amount of RT-PCR product. Specifically, quantification is based on the threshold cycle, where the amplification plot crosses a defined fluorescence threshold. […] The data is analyzed using the ABI SDS program version 1.7. […]
The RT-PCR product was detected using the following labeled probe: […]
To normalize the data to an internal control molecule within the cellular RNA, RT-PCR is performed on the cellular messenger RNA glyceraldehyde-3-phosphate dehydrogenase (GAPDH). […] GAPDH RT-PCR is performed on the same RNA sample from which the HCV copy number is determined. […] The ratio of HCV/GAPDH RNA is used to calculate the activity of compounds evaluated for inhibition of HCV RNA replication. […]

The target of series [3] is full-length NS3 HCV protease 1b tethered with NS4A cofactor (Hepatitis C virus genotype 1b, UniProt Q9WMX2). In words: NS3/NS4a Protease Enzyme Assay. Type of series: biochemical. The procedure:
HCV protease activity and inhibition is assayed using an internally quenched fluorogenic substrate. A DABCYL and an EDANS group are attached to opposite ends of a short peptide. Quenching of the EDANS fluorescence by the DABCYL group is relieved upon proteolytic cleavage. Fluorescence is measured with a Molecular Devices Fluoromax (or equivalent) using an excitation wavelength of 355 nm and an emission wavelength of 485 nm.
The assay is run in Corning white half-area 96-well plates (VWR 29444-312 [Corning 3693]) with full-length NS3 HCV protease 1b tethered with NS4A cofactor (final enzyme concentration 1 to 15 nM). The assay buffer is complemented with 10 μM NS4A cofactor Pep 4A (Anaspec 25336 or in-house, MW 1424.8). RET S1 (Ac-Asp-Glu-Asp(EDANS)-Glu-Glu-Abu-[COO]Ala-Ser-Lys-(DABCYL)-NH2, AnaSpec 22991, MW 1548.6) is used as the fluorogenic peptide substrate. The assay buffer contains 50 mM Hepes at pH 7.5, 30 mM NaCl and 10 mM BME. The enzyme reaction is followed over a 30 minutes time course at room temperature in the absence and presence of inhibitors.
The peptide inhibitors HCV Inh 1 (Anaspec 25345, MW 796.8) Ac-Asp-Glu-Met-Glu-Glu-Cys-OH, [−20° C.] and HCV Inh 2 (Anaspec 25346, MW 913.1) Ac-Asp-Glu-Dif-Cha-Cys-OH, are used as reference compounds.
IC50 values are calculated using XLFit in ActivityBase (IDBS) using equation 205: y=A+((B−A)/(1+((C/x)^D))).

full-length NS3 HCV protease 1b tethered with NS4A cofactor, sequence (Q9WMX2 1027-1657, other chains not shown): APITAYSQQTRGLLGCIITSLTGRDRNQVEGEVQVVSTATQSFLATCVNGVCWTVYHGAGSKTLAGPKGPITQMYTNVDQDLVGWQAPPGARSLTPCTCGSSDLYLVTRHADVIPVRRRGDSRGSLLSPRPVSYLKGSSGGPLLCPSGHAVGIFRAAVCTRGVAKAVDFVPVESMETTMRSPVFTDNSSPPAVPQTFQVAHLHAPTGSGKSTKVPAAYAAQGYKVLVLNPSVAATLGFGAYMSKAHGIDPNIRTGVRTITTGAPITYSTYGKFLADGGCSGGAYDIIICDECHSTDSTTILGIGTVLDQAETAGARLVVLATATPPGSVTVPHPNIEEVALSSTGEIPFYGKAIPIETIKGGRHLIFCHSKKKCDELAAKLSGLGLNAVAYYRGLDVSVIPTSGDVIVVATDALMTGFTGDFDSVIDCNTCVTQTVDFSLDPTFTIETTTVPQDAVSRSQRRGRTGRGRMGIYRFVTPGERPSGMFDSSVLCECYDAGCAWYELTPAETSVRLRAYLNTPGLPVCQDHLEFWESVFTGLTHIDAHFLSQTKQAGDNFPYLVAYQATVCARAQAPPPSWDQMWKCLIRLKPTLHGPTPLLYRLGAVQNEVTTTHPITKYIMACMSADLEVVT

`COc1ccc(-c2nnn(C3CC4C(=O)NC5(C(=O)NS(=O)(=O)C6CC6)CC5C=CCCCCCC(NC(=O)OC5CCCC5)C(=O)N4C3)n2)cc1` (stereo not drawn) [Example 36]: in series [1], the AUC (in general, the area under the concentration-time curve, a measure of exposure) was determined as 52900 ng·h/mL; the peak level (Cmax) was 16100 ng/mL; the bioavailability (as a rule, dose-corrected exposure relative to a reference, in per cent) was determined as 76%. Also, the pEC50 (commonly −log10 of the EC50, conventionally taken in molar units) in series [2] is 9.10. The pIC50 (in general, the IC50 on a negative log10 scale, so that one unit is a factor of ten) in series [3] was 10.00.
With `O=C(NC1CCCCCC=CC2CC2(C(=O)NS(=O)(=O)C2CC2)NC(=O)C2CC(n3nnc(-c4cccc5ccccc45)n3)CN2C1=O)OC1CCCC1` (stereo not drawn) [Example 117], the pEC50 in series [2] is 9.10. In series [3], this compound gave a pIC50 of 9.70.
As to `COc1ccc(-n2nnc(C3CC4C(=O)NC5(C(=O)NS(=O)(=O)C6CC6)CC5C=CCCCCCC(NC(=O)OC5CCCC5)C(=O)N4C3)n2)cc1` (stereo not drawn) [Example 101], the pEC50 in series [2] was 9.10. This compound had a pIC50 in series [3] of 9.40.
